Results taken from PubChem BioAssay AID1963827 (Molecular Pharmacology Branch, DTP, NCI, 2024).
“And” between values parts separate entries of the source, which are not always exact repeats. Equal values may be shown once.

System: 994946-033-R-J1-PDC complex spheroid viability
Assay: Anticancer human tumor 994946-033-R-J1-PDC patient-derived melanoma cell line growth inhibition [POLQ]
Conditions: for viability, T/C: stronger effect = lower value
Procedure: Multicellular complex tumor spheroid response to Polymerase (POL) inhibitors (novobiocin, ART-558, RP6685) in combination with a variety of drugs and investigational agents in selected tumor cell lines
The POL inhibitors (novobiocin, ART-558, and RP6685) were evaluated both individually and in combination with standard of care and investigational anticancer small molecules within a complex spheroid model of solid tumors. . Complex spheroids include a stromal component modeled by human endothelial cells (HUVEC) and fibroblasts modeled by human mesenchymal stem cells (MSCs). The concentration ranges selected for each drug and investigational agent were based upon clinically achievable concentrations if the clinical Cmax of the agent was known.
Compounds. The drugs and investigational agents: novobiocin (NSC847541), ART-558 (NSC835418), RP-6685 (NSC848927), peposertib (NSC802822), ceralasertib (NSC780249), elimusertib (NSC800525), camonsertib (NSC841442), AZD-1390 (NSC803789), olaparib (NSC753686), talazoparib (NSC767125), rucaparib (NSC756644), sotorasib (NSC818433), MRTX-1133 (NSC836407), SN-38 (NSC673596), topotecan (NSC609699), epotoside (NSC141540), doxorubicin (NSC123127), gemcitabine (NSC613327), 5-fluorouracil (NSC19893), paclitaxel (NSC125973), vemurafenib (NSC761431), MSA-2 (NSC828583), SN-011 (NSC837082), adavosertib (NSC754352), prexasertib (NSC758257), carboplatin (NSC241240) and oxaliplatin (NSC266046), were obtained from the National Cancer Institute (NCI) Developmental Therapeutics Program Chemical Repository (21). The FDA-approved anticancer drug set is available from the Developmental Therapeutics Program at https://dtp.cancer.gov/organization/dscb/obtaining/. […] The stock solutions were prepared in dimethyl sulfoxide (DMSO, Sigma-Aldrich, St. Louis, MO, cat. D2650), except for the platinum compounds which were prepared in saline (Quality Biological, Gaithersburg, MD, cat. 114-055-101), at 800-fold the tested concentration and stored at -70 degrees C prior to their use. All drugs and investigational agents were tested over a range starting from a high concentration at or near the clinical Cmax and decreasing in half-log increments. If the clinical Cmax for an agent had not been determined, the highest concentration tested was 10 microM, except for SN-38, which was tested at a high concentration of 1 microM.
Cell Culture. All cells were maintained in an incubator at 37 degrees C and 5% CO2 with 95% humidity. The PDC lines were cultured according to standard operating procedures established by the NCI PDMR (https://pdmr.cancer.gov). Table 3 of the manuscript, lists the cell lines along with the number of the three cell types plated to form the mct-spheroids and media for tumor cell growth. After thawing, all PDC lines, except 997537-175-T-J1-PDC and 415267-285-R-J2-PDC, were cultured in Matrigel-coated flasks prepared with a working solution of 1X Ham's F-12 nutrient mix, without supplementation (Thermo Fisher Scientific, cat. 11765054), 100 U/mL penicillin-streptomycin (Thermo Fisher Scientific, cat. 15140122), and 2.5% Matrigel (Corning Inc., Corning, NY, cat. 354248) for the first three passages. The two PDC lines 997537-175-T-J1-PDC and 415267-285-R-J2-PDC were cultured on uncoated flasks. The 857933-349-R-J2-PDC line was cultured in 6C/Colon 1B media containing advanced DMEM/F-12 (Thermo Fisher Scientific, cat. 12634028), 10 mM HEPES (Thermo Fisher Scientific, cat. 15630080), 1X GlutaMAX supplement (Thermo Fisher Scientific, cat. 35050061), 0.1 mg/mL primocin (InvivoGen, San Diego, CA, cat. ant-pm-2), 10% defined fetal bovine serum, heat inactivated (HyClone Laboratories Inc., Logan, UT, cat. SH30070.03HI), 50% L-WRN conditioned media (ATCC, cat. CRL-3276), 1.25 mM N-Acetyl-L-cysteine (Sigma-Aldrich, cat. A9165), 10 mM nicotinamide (Sigma-Aldrich, cat. N0636), 1X B-27 supplement (Thermo Fisher Scientific, cat. 17504044), 1X N-2 supplement (Thermo Fisher Scientific, cat. […]

[1] = curve of first compound, second compound 0.0316 µM
[2] = curve of first compound, second compound 0.1 µM
[3] = curve of first compound, second compound 0.316 µM
[4] = curve of first compound, second compound 1 µM
[5] = curve of first compound, second compound 3.16 µM
[6] = curve of first compound, second compound 10 µM
[7] = second compound 0.0316 µM, first compound 0.0316 µM
[8] = second compound 0.0316 µM, first compound 0.1 µM
[9] = second compound 0.1 µM, first compound 0.0316 µM
[10] = second compound 0.1 µM, first compound 0.1 µM
[11] = second compound 0.316 µM, first compound 0.0316 µM
[12] = second compound 0.316 µM, first compound 0.1 µM
[13] = second compound 1 µM, first compound 0.0316 µM
[14] = second compound 1 µM, first compound 0.1 µM
[15] = second compound 3.16 µM, first compound 0.0316 µM
[16] = second compound 3.16 µM, first compound 0.1 µM
[17] = second compound 10 µM, first compound 0.0316 µM
[18] = second compound 10 µM, first compound 0.1 µM
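Note: spheroids exposed to drugs for 7 days.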
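Throughout, for viability, T/C: 100% = DMSO vehicle treated spheroids.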

CC[C@@]1(O)C(=O)OCc2c1cc1n(c2=O)Cc2cc3c(CN(C)C)c(O)ccc3nc2-1 + COC1C(OC(N)=O)C(O)C(Oc2ccc3c(O)c(NC(=O)c4ccc(O)c(CC=C(C)C)c4)c(=O)oc3c2C)OC1(C)C
IC50 [1]: 21.2 nM
IC50 [2]: 19.8 nM
IC50 [3]: 21.4 nM
IC50 [4]: 20.5 nM
IC50 [5]: 17.7 nM
IC50 [6]: 20.2 nM
viability, T/C (second compound 0.0316 µM, first compound 0.000316 µM): 107%
viability, T/C (second compound 0.0316 µM, first compound 0.001 µM): 69.1%
viability, T/C (second compound 0.0316 µM, first compound 0.00316 µM): 117%
viability, T/C (second compound 0.0316 µM, first compound 0.01 µM): 77.8%
viability, T/C [7]: 34.3%
viability, T/C [8]: 7.91%
viability, T/C (second compound 0.1 µM, first compound 0.000316 µM): 91.4%
viability, T/C (second compound 0.1 µM, first compound 0.001 µM): 101%
viability, T/C (second compound 0.1 µM, first compound 0.00316 µM): 109%
viability, T/C (second compound 0.1 µM, first compound 0.01 µM): 79.2%
viability, T/C [9]: 29.4%
viability, T/C [10]: 8%
viability, T/C (second compound 0.316 µM, first compound 0.000316 µM): 96.6%
viability, T/C (second compound 0.316 µM, first compound 0.001 µM): 99.6%
viability, T/C (second compound 0.316 µM, first compound 0.00316 µM): 91.3%
viability, T/C (second compound 0.316 µM, first compound 0.01 µM): 86%
viability, T/C [11]: 31.5%
viability, T/C [12]: 11.3%
viability, T/C (second compound 1 µM, first compound 0.000316 µM): 118%
viability, T/C (second compound 1 µM, first compound 0.001 µM): 107%
viability, T/C (second compound 1 µM, first compound 0.00316 µM): 100%
viability, T/C (second compound 1 µM, first compound 0.01 µM): 81.5%
viability, T/C [13]: 30.4%
viability, T/C [14]: 15.1%
viability, T/C (second compound 3.16 µM, first compound 0.000316 µM): 92.7%
viability, T/C (second compound 3.16 µM, first compound 0.001 µM): 86.5%
viability, T/C (second compound 3.16 µM, first compound 0.00316 µM): 77%
viability, T/C (second compound 3.16 µM, first compound 0.01 µM): 73.1%
viability, T/C [15]: 28%
viability, T/C [16]: 10.2%
viability, T/C (second compound 10 µM, first compound 0.000316 µM): 85.5%
viability, T/C (second compound 10 µM, first compound 0.001 µM): 86.9%
viability, T/C (second compound 10 µM, first compound 0.00316 µM): 85.4%
viability, T/C (second compound 10 µM, first compound 0.01 µM): 81%
viability, T/C [17]: 30.3%
viability, T/C [18]: 8.24%

CCc1cc2c(N3CCc4c(cc(Cn5ccnc5)cc4-c4cn(C)nc4C(F)(F)F)C3=O)cc(C)nc2c(OC)n1
viability, T/C (compound 0.0316 µM): 79% and 66% and 74.7%
viability, T/C (compound 0.1 µM): 78.9% and 75.4% and 75.9%
viability, T/C (compound 0.316 µM): 90.3% and 75% and 87.3%
viability, T/C (compound 1 µM): 93.3% and 71.1% and 84.3%
viability, T/C (compound 3.16 µM): 74.8% and 70.8% and 89.7%
viability, T/C (compound 10 µM): 72% and 68.3% and 85.2%
IC50 (curve of compound): > 10000 nM

CNCc1ccc(-c2[nH]c3cc(F)cc4c3c2CCNC4=O)cc1 + Cc1cccc(N(C)C(=O)C2C(O)CCN2c2nc(C)cc(C(F)(F)F)c2C#N)c1
IC50 [1]: > 10000 nM
IC50 [2]: > 10000 nM
IC50 [3]: > 10000 nM
IC50 [4]: > 10000 nM
IC50 [5]: > 10000 nM
IC50 [6]: > 10000 nM
viability, T/C [7]: 88.4%
viability, T/C [8]: 103%
viability, T/C (second compound 0.0316 µM, first compound 0.316 µM): 132%
viability, T/C (second compound 0.0316 µM, first compound 1 µM): 77.5%
viability, T/C (second compound 0.0316 µM, first compound 3.16 µM): 94.8%
viability, T/C (second compound 0.0316 µM, first compound 10 µM): 78.8%
viability, T/C [9]: 85.5%
viability, T/C [10]: 117%
viability, T/C (second compound 0.1 µM, first compound 0.316 µM): 102%
viability, T/C (second compound 0.1 µM, first compound 1 µM): 81.4%
viability, T/C (second compound 0.1 µM, first compound 3.16 µM): 92%
viability, T/C (second compound 0.1 µM, first compound 10 µM): 92.7%
viability, T/C [11]: 113%
viability, T/C [12]: 115%
viability, T/C (second compound 0.316 µM, first compound 0.316 µM): 90.9%
viability, T/C (second compound 0.316 µM, first compound 1 µM): 78.8%
viability, T/C (second compound 0.316 µM, first compound 3.16 µM): 92.8%
viability, T/C (second compound 0.316 µM, first compound 10 µM): 106%
viability, T/C [13]: 105%
viability, T/C [14]: 101%
viability, T/C (second compound 1 µM, first compound 0.316 µM): 89.9%
viability, T/C (second compound 1 µM, first compound 1 µM): 73.1%
viability, T/C (second compound 1 µM, first compound 3.16 µM): 112%
viability, T/C (second compound 1 µM, first compound 10 µM): 104%
viability, T/C [15]: 107%
viability, T/C [16]: 90.5%
viability, T/C (second compound 3.16 µM, first compound 0.316 µM): 109%
viability, T/C (second compound 3.16 µM, first compound 1 µM): 100%
viability, T/C (second compound 3.16 µM, first compound 3.16 µM): 109%
viability, T/C (second compound 3.16 µM, first compound 10 µM): 89.4%
viability, T/C [17]: 103%
viability, T/C [18]: 79%
viability, T/C (second compound 10 µM, first compound 0.316 µM): 118%
viability, T/C (second compound 10 µM, first compound 1 µM): 91.2%
viability, T/C (second compound 10 µM, first compound 3.16 µM): 86.8%
viability, T/C (second compound 10 µM, first compound 10 µM): 83.2%
